# Results as given in patent US20110105397A1, “METHOD FOR TREATING HEART FAILURE WITH STRESSCOPIN-LIKE PEPTIDES” (priority 2009, published 2011).
# Where a SMILES comes first, the peptide text is derived from it. The star is where a group is joined. Succinimide(1-Et,3-yl) = CCN1C(=O)CC(*)C1=O
# Molecular target: T1, human CRHR2 (Homo sapiens, UniProt Q13324)
# T1 construct: expressed in transfected cells
# T1 sequence (Q13324 1-411): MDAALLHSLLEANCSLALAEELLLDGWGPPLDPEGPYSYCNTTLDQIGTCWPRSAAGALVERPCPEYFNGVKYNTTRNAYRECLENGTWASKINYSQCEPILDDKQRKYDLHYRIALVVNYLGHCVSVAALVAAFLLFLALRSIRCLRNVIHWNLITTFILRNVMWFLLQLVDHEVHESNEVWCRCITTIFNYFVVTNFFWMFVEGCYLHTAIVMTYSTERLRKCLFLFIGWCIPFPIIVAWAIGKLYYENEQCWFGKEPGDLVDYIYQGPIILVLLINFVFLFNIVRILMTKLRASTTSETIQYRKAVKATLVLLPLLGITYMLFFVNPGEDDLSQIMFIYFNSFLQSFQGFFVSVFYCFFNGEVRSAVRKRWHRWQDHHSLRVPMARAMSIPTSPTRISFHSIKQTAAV
# Assay: cAMP assay, h-CRHR2 transfected SK-N-MC cells
# Format: cell-based
# Settings: Table 13; for EC50: cysteine mutation, N-ethylmaleimide capping, pegylation, read-out: pA50 (converted); for Log DR [M]: h-SCP control pA50 minus test compound pA50 within the same assay batch
# Method: The concentration required for 50% maximum effect (A50) was 0.4 nM.
# Human CRHR1 (accession number X72304) or CRHR2 (accession number U34587) were cloned into pcDNA3.1/Zeo expression vector and stably transfected into SK—N-MC cells by electroporation. Cells were maintained in MEM w/Earl's Salt with 10% FBS, 50 I.U. penicillin, 50 μg/ml streptomycin, 2 mM L-glutamine, 1 mM sodium pyruvate and 0.1 mM non-essential amino acids, 600 μg/ml G418. Cells were grown at 37° C. in 5% CO2
# Cells were plated in 96-well tissue culture dishes (Biocoat from BD Biosciences) overnight at 50,000 cell/well. Cells were washed with PBS then resuspended in DMEM F-12 without phenol red, containing 10 μM isobutylmethylxanthine (IBMX). Cells were incubated with the peptides at concentrations ranging from 1 pM to 10 μM for 60 min at 37° Celsius. […] Forskolin (10 μM), a direct stimulant of adenylate cyclase, was used as positive control. The assays were stopped by the addition of 0.5 M HCl and mixing by orbital rotation for 2 h at 4° Celsius.
# To assess the activity of the inventive polypeptide at the CRHR2, an intracellular cAMP measurement test using a Flash plate radioactive assay (Catalog No. Cus56088; Perkin Elmer, Mass., U.S.A.) was employed.
# Transfected SK—N-MC cells were plated in 96-well Biocoat tissue culture dishes (BD Biosciences, San Jose, Calif., U.S.A) overnight at 50,000 cell/well. Cells were first washed with PBS and then suspended with DMEM/F-12 without phenol red, containing […]. Suspended cells were transferred into a 96-well flash plate coated with scintillant fluid. Cells were incubated with peptides ranging from 1 pM to 1 μM, for 60 min, at 37° Celsius. Forskolin at 10 μM was used as positive control. After ligand stimulation, cells were lysed by the addition of 0.5M HCl and mixed by orbital rotation for 2 h at 4° Celsius in order to release intracellular cAMP into the media.
# Media containing released intracellular cAMP was transferred to a 96-well flash plate coated with scintillant fluid containing an anti-cAMP antibody. In this assay, intracellular cAMP competes with ^125I-labeled cAMP binding to the antibody. To generate a standard curve, cAMP ranging from 2.5 to 250 pmoles/ml was included in the experiment. [^125I]-cAMP was measured on a TopCount scintillation counter (Perkin Elmer, Mass., U.S.A).
# Individual agonist concentration-response curve data were fitted to the Hill equation, see formula below, using GraphPad Prism (Graphpad Software, La Jolla, Calif., U.S.A.), to provide estimates of agonist concentration needed to generate one-half maximal response (A50), and the maximal asymptote (α) and Hill slope (nH) parameters. In this equation, [A] is the agonist concentration and E is the measured effect:
# For display purposes the mean fitted parameter estimates were used to generate a single E/[A] curve shown superimposed on the mean experimental data. Potency estimates for agonists, pA50, are expressed as the negative logarithm of the midpoint of each curve and listed with their standard error of measurement (SEM). Logarithm base 10 of the agonist dose ratio (Log DR) values were calculated by subtraction of the test compound pA50 value from the corresponding h-SCP (SEQ ID NO:1) control pA50 value within the same assay batch. The SEM values of the Log DR values are given by the square root of the sum of the squared SEM values of the h-SCP (SEQ ID NO:1) control and test compound pA50 values.
# Human and rat peptides (see Table 10) were used on the stimulation of h-CRHR1 or h-CRHR2 transfected SK—N-MC cells in the cAMP flash plate assay. Peptides were incubated for 1 hr at 37° Celsius. Curves were calculated using non-linear regression sigmoidal concentration-response analysis calculation in GraphPad Prism. The so obtained pA50 values are shown in Table 11 in addition to literature values. […]
EC50,Log DR [M],SMILES
0.331 nM,−0.01,"CC[C@H](C)[C@H](NC(=O)[C@H](CCC(N)=O)NC(=O)[C@H](C)NC(=O)[C@H](CCSC)NC(=O)[C@H](CC(C)C)NC(=O)[C@H](Cc1c[nH]cn1)NC(=O)[C@H](C)NC(=O)[C@H](CC(N)=O)NC(=O)[C@H](CSC1CC(=O)N(CC)C1=O)NC(=O)[C@H](C)NC(=O)[C@H](C)NC(=O)[C@H](CCC(N)=O)NC(=O)[C@H](C)NC(=O)[C@H](CCCNC(=N)N)NC(=O)[C@H](CC(C)C)NC(=O)[C@H](CC(N)=O)NC(=O)[C@H](CCCCN)NC(=O)[C@H](C)NC(=O)[C@H](CCCCN)NC(=O)[C@H](C)NC(=O)[C@@H](NC(=O)[C@H](CC(N)=O)NC(=O)[C@H](Cc1ccccc1)NC(=O)[C@H](CC(C)C)NC(=O)[C@H](CC(C)C)NC(=O)[C@H](CC(N)=O)NC(=O)[C@H](CCSC)NC(=O)[C@@H](NC(=O)[C@H](CC(N)=O)NC(=O)[C@@H](NC(=O)[C@@H]1CCCN1C(=O)[C@@H](NC(=O)[C@H](CC(=O)O)NC(=O)[C@H](CC(C)C)NC(=O)[C@H](CO)NC(=O)[C@H](CC(C)C)NC(=O)[C@@H](NC(=O)[C@H](Cc1ccccc1)NC(=O)[C@H](CCCCN)NC(=O)[C@@H](N)[C@@H](C)O)[C@@H](C)O)C(C)C)[C@@H](C)O)[C@@H](C)CC)[C@@H](C)CC)C(N)=O (some centres unmarked) [SEQ ID NO: 45, TKFTLSLDVPTNIMNLLFNIAKAKNLRAQAAC(-NES)NAH LMAQI-NH2] (H-TKFTLSLDVPTNIMNLLFNIAKAKNLRAQAAC(Succinimide(1-Et,3-yl))NAHLMAQI-NH2; N-terminus assumed)"
0.372 nM,0.04,"CC[C@H](C)[C@H](NC(=O)[C@H](CCC(N)=O)NC(=O)[C@H](C)NC(=O)[C@H](CCSC)NC(=O)[C@H](CC(C)C)NC(=O)[C@H](Cc1c[nH]cn1)NC(=O)[C@H](C)NC(=O)[C@H](CC(N)=O)NC(=O)[C@H](C)NC(=O)[C@H](CSC1CC(=O)N(CC)C1=O)NC(=O)[C@H](C)NC(=O)[C@H](CCC(N)=O)NC(=O)[C@H](C)NC(=O)[C@H](CCCNC(=N)N)NC(=O)[C@H](CC(C)C)NC(=O)[C@H](CC(N)=O)NC(=O)[C@H](CCCCN)NC(=O)[C@H](C)NC(=O)[C@H](CCCCN)NC(=O)[C@H](C)NC(=O)[C@@H](NC(=O)[C@H](CC(N)=O)NC(=O)[C@H](Cc1ccccc1)NC(=O)[C@H](CC(C)C)NC(=O)[C@H](CC(C)C)NC(=O)[C@H](CC(N)=O)NC(=O)[C@H](CCSC)NC(=O)[C@@H](NC(=O)[C@H](CC(N)=O)NC(=O)[C@@H](NC(=O)[C@@H]1CCCN1C(=O)[C@@H](NC(=O)[C@H](CC(=O)O)NC(=O)[C@H](CC(C)C)NC(=O)[C@H](CO)NC(=O)[C@H](CC(C)C)NC(=O)[C@@H](NC(=O)[C@H](Cc1ccccc1)NC(=O)[C@H](CCCCN)NC(=O)[C@@H](N)[C@@H](C)O)[C@@H](C)O)C(C)C)[C@@H](C)O)[C@@H](C)CC)[C@@H](C)CC)C(N)=O (some centres unmarked) [SEQ ID NO: 46, TKFTLSLDVPTNIMNLLFNIAKAKNLRAQAC(-NES)ANAH LMAQI-NH2] (H-TKFTLSLDVPTNIMNLLFNIAKAKNLRAQAC(Succinimide(1-Et,3-yl))ANAHLMAQI-NH2; N-terminus assumed)"
0.316 nM,−0.03,"CC[C@H](C)[C@H](NC(=O)[C@H](CCC(N)=O)NC(=O)[C@H](C)NC(=O)[C@H](CCSC)NC(=O)[C@H](CC(C)C)NC(=O)[C@H](Cc1c[nH]cn1)NC(=O)[C@H](C)NC(=O)[C@H](CC(N)=O)NC(=O)[C@H](C)NC(=O)[C@H](C)NC(=O)[C@H](C)NC(=O)[C@H](CCC(N)=O)NC(=O)[C@H](CSC1CC(=O)N(CC)C1=O)NC(=O)[C@H](CCCNC(=N)N)NC(=O)[C@H](CC(C)C)NC(=O)[C@H](CC(N)=O)NC(=O)[C@H](CCCCN)NC(=O)[C@H](C)NC(=O)[C@H](CCCCN)NC(=O)[C@H](C)NC(=O)[C@@H](NC(=O)[C@H](CC(N)=O)NC(=O)[C@H](Cc1ccccc1)NC(=O)[C@H](CC(C)C)NC(=O)[C@H](CC(C)C)NC(=O)[C@H](CC(N)=O)NC(=O)[C@H](CCSC)NC(=O)[C@@H](NC(=O)[C@H](CC(N)=O)NC(=O)[C@@H](NC(=O)[C@@H]1CCCN1C(=O)[C@@H](NC(=O)[C@H](CC(=O)O)NC(=O)[C@H](CC(C)C)NC(=O)[C@H](CO)NC(=O)[C@H](CC(C)C)NC(=O)[C@@H](NC(=O)[C@H](Cc1ccccc1)NC(=O)[C@H](CCCCN)NC(=O)[C@@H](N)[C@@H](C)O)[C@@H](C)O)C(C)C)[C@@H](C)O)[C@@H](C)CC)[C@@H](C)CC)C(N)=O (some centres unmarked) [SEQ ID NO: 47, TKFTLSLDVPTNIMNLLFNIAKAKNLRC(-NES)QA AANAH LMAQI-NH2] (H-TKFTLSLDVPTNIMNLLFNIAKAKNLRC(Succinimide(1-Et,3-yl))QAAANAHLMAQI-NH2)"
0.363 nM,0.03,"CC[C@H](C)[C@H](NC(=O)[C@H](CCC(N)=O)NC(=O)[C@H](C)NC(=O)[C@H](CCSC)NC(=O)[C@H](CC(C)C)NC(=O)[C@H](Cc1c[nH]cn1)NC(=O)[C@H](C)NC(=O)[C@H](CC(N)=O)NC(=O)[C@H](C)NC(=O)[C@H](C)NC(=O)[C@H](C)NC(=O)[C@H](CCC(N)=O)NC(=O)[C@H](C)NC(=O)[C@H](CCCNC(=N)N)NC(=O)[C@H](CSC1CC(=O)N(CC)C1=O)NC(=O)[C@H](CC(N)=O)NC(=O)[C@H](CCCCN)NC(=O)[C@H](C)NC(=O)[C@H](CCCCN)NC(=O)[C@H](C)NC(=O)[C@@H](NC(=O)[C@H](CC(N)=O)NC(=O)[C@H](Cc1ccccc1)NC(=O)[C@H](CC(C)C)NC(=O)[C@H](CC(C)C)NC(=O)[C@H](CC(N)=O)NC(=O)[C@H](CCSC)NC(=O)[C@@H](NC(=O)[C@H](CC(N)=O)NC(=O)[C@@H](NC(=O)[C@@H]1CCCN1C(=O)[C@@H](NC(=O)[C@H](CC(=O)O)NC(=O)[C@H](CC(C)C)NC(=O)[C@H](CO)NC(=O)[C@H](CC(C)C)NC(=O)[C@@H](NC(=O)[C@H](Cc1ccccc1)NC(=O)[C@H](CCCCN)NC(=O)[C@@H](N)[C@@H](C)O)[C@@H](C)O)C(C)C)[C@@H](C)O)[C@@H](C)CC)[C@@H](C)CC)C(N)=O (some centres unmarked) [SEQ ID NO: 48, TKFTLSLDVPTNIMNLLFNIAKAKNC(-NES)RAQA AANAH LMAQI-NH2] (H-TKFTLSLDVPTNIMNLLFNIAKAKNC(Succinimide(1-Et,3-yl))RAQAAANAHLMAQI-NH2; N-terminus assumed)"
